Reference: US20220062240A1, “METHODS OF TREATING CANCER USING A CLK INHIBITOR” (BioSplice Therapeutics, Inc., priority 2018, published 2022)
Read-outs that look alike come from different tables or passages of the source. Values belong to the compound of their own block, whether it stands above or below them.

Tests used:
CLK2 = target: T1, CLK2 (Homo sapiens, UniProt P49760); experiment: CLK2 kinase activity assay (Z-lyte, Ser/Thr 6 peptide); assay type: biochemical; conditions: recombinant CLK2 kinase, ATP 60 μM; read-out: EC50
T1 construct: purchased Thermo Fisher (Life Technologies), Z'-LYTE Kinase Assay Kits
Method: All reactions were performed in duplicate.

BT-549 = experiment: CellTiter-Glo Viability Assay, breast cancer; assay type: cell-based; conditions: Homo sapiens, 96 h; BT-549, breast cancer, four days; read-out: EC50
CAMA1 = experiment: CellTiter-Glo Viability Assay, breast cancer; assay type: cell-based; conditions: Homo sapiens, CAMA-1, 96 h; CAMA1, breast cancer, four days; read-out: EC50
DU4475 = experiment: CellTiter-Glo Viability Assay, breast cancer; assay type: cell-based; conditions: Homo sapiens, DU-4475, 96 h; DU4475, breast cancer, four days; read-out: EC50
HCC1599 = experiment: CellTiter-Glo Viability Assay, breast cancer; assay type: cell-based; conditions: Homo sapiens, 96 h; HCC1599, breast cancer, four days; read-out: EC50
MCF7 = experiment: CellTiter-Glo Viability Assay, breast cancer; assay type: cell-based; conditions: Homo sapiens, 96 h; MCF7, breast cancer, four days; read-out: EC50
MDA-MB-231-Luc = experiment: CellTiter-Glo Viability Assay, breast cancer; assay type: cell-based; conditions: Homo sapiens, 96 h; MDA-MB-231-Luc, breast cancer, four days; read-out: EC50
T47D = experiment: CellTiter-Glo Viability Assay, breast cancer; assay type: cell-based; conditions: Homo sapiens, 96 h, breast cancer, four days, read-out: EC50
ZR-75-1 = experiment: CellTiter-Glo Viability Assay, breast cancer; assay type: cell-based; conditions: Homo sapiens, 96 h; ZR-75-1, breast cancer, four days; read-out: EC50
all 50 cell lines = experiment: CellTiter-Glo Viability Assay, average across all cell lines; assay type: cell-based; conditions: Homo sapiens; across all 50 cell lines; read-out: average EC50 for inhibition of cancer cell proliferation
Procedure, shortened: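 4-day proliferation, 37° C/5% CO2; 300-3,000 cells/well; compound in duplicate vs DMSO controls. Panel: breast, colorectal, heme/lymphoid, liver, lung, ovarian, pancreatic, prostate lines. Read-out: CellTiter-Glo ATP luminescence, EC50 from dose-response.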

[1] = tested on: colorectal cancer (6 cell lines); experiment: CellTiter-Glo Viability Assay, colorectal cancer; assay type: cell-based; conditions: Homo sapiens, inhibition of cancer cell proliferation
[2] = tested on: haematopoietic & lymphoid tumors (13 cell lines); experiment: CellTiter-Glo Viability Assay, haematopoietic & lymphoid tumors; assay type: cell-based; conditions: Homo sapiens, inhibition of cancer cell proliferation
[3] = tested on: liver cancer (3 cell lines); experiment: CellTiter-Glo Viability Assay, liver cancer; assay type: cell-based; conditions: Homo sapiens, inhibition of cancer cell proliferation
[4] = tested on: lung cancer (4 cell lines); experiment: CellTiter-Glo Viability Assay, lung cancer; assay type: cell-based; conditions: Homo sapiens, inhibition of cancer cell proliferation
[5] = tested on: ovarian cancer (4 cell lines); experiment: CellTiter-Glo Viability Assay, ovarian cancer; assay type: cell-based; conditions: Homo sapiens, inhibition of cancer cell proliferation
[6] = tested on: pancreatic cancer (8 cell lines); experiment: CellTiter-Glo Viability Assay, pancreatic cancer; assay type: cell-based; conditions: Homo sapiens, inhibition of cancer cell proliferation
[7] = tested on: prostate cancer (5 cell lines); experiment: CellTiter-Glo Viability Assay, prostate cancer; assay type: cell-based; conditions: Homo sapiens
CLK3 = CLK3 (Homo sapiens, UniProt P49761); experiment: CLK3 kinase activity assay (Z-lyte, Ser/Thr 18 peptide)
[8] = HCT-116, HCT116 cell line, read-out: Colorectal cancer, EC50 (μM) HCT116
[9] = HT-29, HT29 cell line, read-out: Colorectal cancer, EC50 (μM) HT29
[10] = SW-620, SW620 cell line, read-out: Colorectal cancer, EC50 (μM) SW620
[11] = DLD-1 cell line, read-out: Colorectal cancer, EC50 (μM) DLD-1
[12] = SW48 cell line, read-out: Colorectal cancer, EC50 (μM) SW48
[13] = SW480 cell line, read-out: Colorectal cancer, EC50 (μM) SW480
[14] = DND41, DND-41 cell line, read-out: Haematopoietic & Lymphoid tumors, EC50 (μM) DND-41
[15] = MV4-11, MV-4-11 cell line, read-out: Haematopoietic & Lymphoid tumors, EC50 (μM) MV-4-11
[16] = Rec1, REC-1 cell line, read-out: Haematopoietic & Lymphoid tumors, EC50 (μM) REC-1
[17] = SU-DHL-4, SUDHL4 cell line, read-out: Haematopoietic & Lymphoid tumors, EC50 (μM) SUDHL4
[18] = HL-60 cell line, read-out: Haematopoietic & Lymphoid tumors, EC50 (μM) HL-60
[19] = JM1 cell line, read-out: Haematopoietic & Lymphoid tumors, EC50 (μM) JM1
[20] = JURKAT, Clone E6-1 cell line, read-out: Haematopoietic & Lymphoid tumors, EC50 (μM) JURKAT, Clone E6-1
[21] = JeKo-1 cell line, read-out: Haematopoietic & Lymphoid tumors, EC50 (μM) JeKo-1
[22] = KASUMI-1 cell line, read-out: Haematopoietic & Lymphoid tumors, EC50 (μM) KASUMI-1
[23] = Loucy cell line, read-out: Haematopoietic & Lymphoid tumors, EC50 (μM) Loucy
[24] = MOLT-4 cell line, read-out: Haematopoietic & Lymphoid tumors, EC50 (μM) MOLT-4
[25] = TF-1 cell line, read-out: Haematopoietic & Lymphoid tumors, EC50 (μM) TF-1
[26] = TOLEDO cell line, read-out: Haematopoietic & Lymphoid tumors, EC50 (μM) TOLEDO
[27] = SNU-398, SNU398 cell line, read-out: Liver cancer, EC50 SNU398
[28] = HEPG2 cell line, read-out: Liver cancer, EC50 HEPG2
[29] = PLC/PRF/5 cell line, read-out: Liver cancer, EC50 PLC/PRF/5
[30] = A-427, A427 cell line, read-out: Lung cancer, EC50 (μM) A427
[31] = HCC78, HCC-78 cell line, read-out: Lung cancer, EC50 (μM) HCC-78
[32] = NCI-H460 cell line, read-out: Lung cancer, EC50 (μM) NCI-H460
[33] = NCI-H522 cell line, read-out: Lung cancer, EC50 (μM) NCI-H522
[34] = PA-1, PA1 cell line, read-out: Ovarian cancer, EC50 (μM) PA1
[35] = TOV112D, TOV-112D cell line, read-out: Ovarian cancer, EC50 (μM) TOV-112D
[36] = OV-90 cell line, read-out: Ovarian cancer, EC50 (μM) OV-90
[37] = OVCAR-3 cell line, read-out: Ovarian cancer, EC50 (μM) OVCAR-3
[38] = BXPC-3, BxPC3 cell line, read-out: Pancreatic cancer, EC50 BxPC3
[39] = CAPAN-1, Capan1 cell line, read-out: Pancreatic cancer, EC50 Capan1
[40] = Capan-2, Capan2 cell line, read-out: Pancreatic cancer, EC50 Capan2
[41] = MIA PaCa-2 cell line, read-out: Pancreatic cancer, EC50 MIA PaCa-2
[42] = PANC 05.04 cell line, read-out: Pancreatic cancer, EC50 PANC 05.04
[43] = PANC-1 cell line, read-out: Pancreatic cancer, EC50 PANC-1
[44] = UPAFII cell line, read-out: Pancreatic cancer, EC50 UPAFII
[45] = DU-145, read-out: Prostate cancer EC50 Du-145
[46] = PC-3, PC3 cell line, inhibition of cancer cell proliferation, read-out: Prostate cancer EC50 PC3
[47] = 22Rv1 cell line, inhibition of cancer cell proliferation, read-out: Prostate cancer EC50 22Rv1
[48] = LNCap clone FGC cell line, inhibition of cancer cell proliferation, read-out: Prostate cancer EC50 LNCap clone FGC
[49] = VCaP (Sigma) cell line, inhibition of cancer cell proliferation, read-out: Prostate cancer EC50 VCaP (Sigma)

Chain of CLK3 (P49761 whole entry): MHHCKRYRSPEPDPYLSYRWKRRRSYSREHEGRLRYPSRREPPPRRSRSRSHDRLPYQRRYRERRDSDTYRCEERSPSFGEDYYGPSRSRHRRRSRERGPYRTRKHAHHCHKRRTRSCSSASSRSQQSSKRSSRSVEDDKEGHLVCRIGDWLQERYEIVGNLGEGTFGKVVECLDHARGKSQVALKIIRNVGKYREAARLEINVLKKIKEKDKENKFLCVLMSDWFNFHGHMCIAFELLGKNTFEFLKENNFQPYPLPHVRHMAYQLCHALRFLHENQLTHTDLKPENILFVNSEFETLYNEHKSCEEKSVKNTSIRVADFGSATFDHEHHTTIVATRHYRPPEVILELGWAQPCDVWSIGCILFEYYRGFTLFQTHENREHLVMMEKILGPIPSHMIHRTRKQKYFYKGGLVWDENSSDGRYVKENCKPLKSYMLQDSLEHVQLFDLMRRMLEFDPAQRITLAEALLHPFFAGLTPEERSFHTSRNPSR
T1 sequence (P49760 whole entry): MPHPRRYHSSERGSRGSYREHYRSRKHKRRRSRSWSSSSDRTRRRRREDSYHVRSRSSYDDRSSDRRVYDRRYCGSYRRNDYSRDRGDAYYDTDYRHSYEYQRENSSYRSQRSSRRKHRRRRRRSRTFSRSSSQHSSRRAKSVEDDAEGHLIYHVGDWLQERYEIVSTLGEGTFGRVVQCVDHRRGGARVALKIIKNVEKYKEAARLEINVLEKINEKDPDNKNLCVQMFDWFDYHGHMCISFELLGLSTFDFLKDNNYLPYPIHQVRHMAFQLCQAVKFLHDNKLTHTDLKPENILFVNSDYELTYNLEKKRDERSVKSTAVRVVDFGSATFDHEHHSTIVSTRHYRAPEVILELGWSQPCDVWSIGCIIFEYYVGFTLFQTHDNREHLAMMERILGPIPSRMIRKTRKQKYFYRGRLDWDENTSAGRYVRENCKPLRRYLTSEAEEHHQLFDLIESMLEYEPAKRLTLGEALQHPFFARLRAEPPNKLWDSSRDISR

- EC50 (CLK2): 0.1 nM
- EC50 (BT-549): 1310 nM
- EC50 (CAMA1): 1910 nM
- EC50 (DU4475): 1000 nM
- EC50 (HCC1599): 146 nM
- EC50 (MCF7): > 3500 nM
- EC50 (MDA-MB-231-Luc): 2860 nM
- EC50 (T47D): > 3500 nM
- EC50 (ZR-75-1): 3410 nM
- EC50 [1, 8]: 1.17 µM
- EC50 [1, 9]: 1.54 µM
- EC50 [1, 10]: 0.886 µM
- EC50 [1, 11]: 2.21 µM
- EC50 [1, 12]: 0.63 µM
- EC50 [1, 13]: 1.57 µM
- EC50 [2, 14]: 0.894 µM
- EC50 [2, 15]: 0.147 µM
- EC50 [2, 16]: 2.31 µM
- EC50 [2, 17]: 1.23 µM
- EC50 [2, 18]: 3.06 µM
- EC50 [2, 19]: 0.409 µM
- EC50 [2, 20]: 1.77 µM
- EC50 [2, 21]: 0.455 µM
- EC50 [2, 22]: 2.01 µM
- EC50 [2, 23]: 0.952 µM
- EC50 [2, 24]: 2.52 µM
- EC50 [2, 25]: 2.92 µM
- EC50 [2, 26]: 0.317 µM
- EC50 [3, 27]: 381 nM
- EC50 [3, 28]: 2200 nM
- EC50 [3, 29]: > 3500 nM
- EC50 [4, 30]: 0.875 µM
- EC50 [4, 31]: > 3.5 µM
- EC50 [4, 32]: > 3.5 µM
- EC50 [4, 33]: 1.17 µM
- EC50 [5, 34]: 1.29 µM
- EC50 [5, 35]: 1.68 µM
- EC50 [5, 36]: > 3.5 µM
- EC50 [5, 37]: 0.89 µM
- EC50 [6, 38]: 3300 nM
- EC50 [6, 39]: 2760 nM
- EC50 [6, 40]: > 3500 nM
- EC50 [6, 41]: 1000 nM
- EC50 [6, 42]: > 3500 nM
- EC50 [6, 43]: > 3500 nM
- EC50 [6, 44]: 1800 nM
- EC50 [7, 45]: 1870 nM
- EC50 [7, 46]: 1030 nM
- EC50 [7, 47]: 1140 nM
- EC50 [7, 48]: > 3500 nM
- EC50 [7, 49]: 2000 nM
- EC50 (CLK3): 2.5 nM
SMILES: c1cncc(-c2ccc3[nH]nc(-c4cc5c(-c6cccnc6)cncc5[nH]4)c3c2)c1 [Compound 48]
- EC50 (all 50 cell lines): 3220 nM

- EC50 (CLK2): 3.8 nM
- EC50 (BT-549): 1530 nM
- EC50 (CAMA1): 919 nM
- EC50 (DU4475): 750 nM
- EC50 (HCC1599): 828 nM
- EC50 (MCF7): 3520 nM
- EC50 (MDA-MB-231-Luc): 1200 nM
- EC50 (T47D): 1740 nM
- EC50 (ZR-75-1): 1110 nM
- EC50 [1, 8]: 0.522 µM
- EC50 [1, 9]: 2.8 µM
- EC50 [1, 10]: 0.239 µM
- EC50 [1, 11]: 1.17 µM
- EC50 [1, 12]: 0.312 µM
- EC50 [1, 13]: 0.274 µM
- EC50 [2, 14]: 0.258 µM
- EC50 [2, 15]: 0.122 µM
- EC50 [2, 16]: 3.62 µM
- EC50 [2, 17]: 0.419 µM
- EC50 [2, 18]: 0.767 µM
- EC50 [2, 19]: 0.256 µM
- EC50 [2, 20]: 1.07 µM
- EC50 [2, 21]: 0.159 µM
- EC50 [2, 22]: 1.27 µM
- EC50 [2, 23]: 0.174 µM
- EC50 [2, 24]: 1.29 µM
- EC50 [2, 25]: 2.73 µM
- EC50 [2, 26]: 0.441 µM
- EC50 [3, 27]: 91 nM
- EC50 [3, 28]: 1460 nM
- EC50 [3, 29]: 3540 nM
- EC50 [4, 30]: 0.489 µM
- EC50 [4, 31]: 0.92 µM
- EC50 [4, 32]: 9.68 µM
- EC50 [4, 33]: 0.31 µM
- EC50 [5, 34]: 1.09 µM
- EC50 [5, 35]: 0.419 µM
- EC50 [5, 36]: 1.34 µM
- EC50 [5, 37]: 0.67 µM
- EC50 [6, 38]: 3410 nM
- EC50 [6, 39]: 3510 nM
- EC50 [6, 40]: 2210 nM
- EC50 [6, 41]: 381 nM
- EC50 [6, 42]: 2920 nM
- EC50 [6, 43]: > 10000 nM
- EC50 [6, 44]: 1720 nM
- EC50 [7, 45]: 955 nM
- EC50 [7, 46]: 759 nM
- EC50 [7, 47]: 833 nM
- EC50 [7, 48]: 1640 nM
- EC50 [7, 49]: 1790 nM
- EC50 (CLK3): 35.1 nM
SMILES: CC(C)CC(=O)Nc1cncc(-c2ccc3[nH]nc(-c4cc5c(N6CCCCC6)cncc5[nH]4)c3c2)c1 [Compound 50]
- EC50 (all 50 cell lines): 1590 nM
